The record followed here is patent publication US11279733B2, “Peptide antibiotics” (priority 2017, dated 2022).

One data set is described as follows: in vitro. Conditions: human. The protocol: Cytotoxicity of the synthesised peptides was evaluated by comparison with commercially available colistin (polymyxin E), polymyxin B (Sigma chemical Co., St. Louis, Mo., U.S.A.) and synthetic octapeptin C4 by conducting lactate dehydrogenase (LDH) assay. CC50 values calculated based on curve fitting of dose dependent inhibition of cell growth represented the cytotoxicity of the peptide. Human kidney 2 (HK2) cells were seeded as 2000 cells per well in a 384 well cell culture plate in a final volume of 20 μL in DMEM/F12 medium (Invitrogen #11330057), in which 10% of FBS was added. Cells were incubated for 24 hours at 37° C., 5% CO2 to allow cells to attach to the plates. Similar conditions were employed for HEK293 and HepG2 cytotoxicity assays.
Cytotoxicity to HEK293 and HepG2 cells was determined using the resazurin assay (McMillian, M. K.; Li, L.; Parker, J. B.; Patel, L.; Zhong, Z.; Gunnett, J. W.; Powers, W. J.; Johnson, M. D. An improved resazurin-based cytotoxicity assay for hepatic cells; Cell Biol. Toxicol. 2002, 18, 157-173; O'Brien, J.; Wilson, I.; Orton, T.; Pognan, F. Investigation of the Alamar Blue (resazurin) fluorescent dye for the assessment of mammalian cell cytotoxicity. Eur. J. Biochem. 2000, 267, 5421-5426). In brief, HEK293 and HepG2 cells were seeded at 4000 cells/well in black-wall, clear-bottom 384-well plates (Corning, Australia) and incubated for 24 h at 37° C., 5% CO2. Compounds were then added into each well. After 24 h incubation, 5 μM resazurin was added per well and incubated at 37° C. for 2 h. Fluorescence intensity was then read using a Polarstar Omega with excitation/emission 560/590. The data was then analyzed using GraphPad Prism 6 software. CC50 values were determined using GraphPad Prism 6 software (Inc. La Jolla, Calif.).

Data set [1] has as its system K. pneumoniae ATCC 700603, MDR. Conditions: ATCC 700603. The method, boiled down:
(§1)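 Mid-log cultures grown in Mueller Hinton broth at 37° C were tested by 2-fold broth microdilution at 5×10^5 CFU/mL final. Compounds were dissolved in water and tested over a final range of 32 to 0.015 μg/mL.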

The test system of another data set is A. baumannii ATCC 19606. Conditions: ATCC 19606. The method, boiled down: as §1
The subject of data set [2] is K. pneumoniae GN_106, PmxR. Conditions: GN 106, PmxR. A digest of the protocol: as §1
The next data set has as its system P. aeruginosa ATCC 27853. Conditions: ATCC 27853. The method, boiled down: as §1
Another data set deals with K. pneumoniae ATCC 13883. The conditions noted are these: ATCC 13883. The method, boiled down: as §1
The test system of data set [3] is K. pneumoniae GN_102 PmxR. The conditions noted are these: GN 102 PmxR. The method, boiled down: as §1
A further data set relates to E. coli ATCC 25922. The conditions noted are these: ATCC 25922. The method, boiled down: as §1
Data set [4] concerns K. pneumoniae ATCC BAA-2146, NDM-1 pos. Conditions: ATCC BAA-2146. The method, boiled down:
as §1

The subject of data set [5] is P. aeruginosa GN_043, PmxR. Conditions: polymyxin-resistant. A digest of the protocol:
as §1

The test system of a further data set is A. baumannii GN_093 PmxR. The conditions noted are these: GN 093 PmxR. A digest of the protocol: as §1
The test system of data set [6] is S. aureus ATCC 25923, MSSA. The conditions noted are these: ATCC 25923. The method, boiled down: as §1
The subject of data set [7] is P. aeruginosa GN_105, PmxR. The conditions noted are these: GN 105, PmxR. A digest of the protocol: as §1

Structures are written as SMILES. Values after ≈ are worked out from the molar mass of the structure shown. Positions of bridges follow the written chain, without caps; N, C: chain ends. Non-standard residues stand in square brackets, D forms with d. Residues, ends and D or L forms follow the SMILES beside them. *: point of attachment. Decanoyl(3R-OH) = CCCCCCC[C@@H](O)CC(=O)*; dDab = NCC[C@@H](N)C(=O)O; Orn = NCCC[C@H](N)C(=O)O; Dab = NCC[C@H](N)C(=O)O; Dap = NC[C@H](N)C(=O)O

In “in vitro”, `CCCCCCC[C@@H](O)CC(=O)N[C@H](CCN)C(=O)N[C@H]1CCNC(=O)[C@H](CC(C)C)NC(=O)[C@H](CN)NC(=O)[C@H](CCN)NC(=O)[C@H](CC(C)C)NC(=O)[C@@H](Cc2ccccc2)NC(=O)[C@H](CCN)NC1=O` [compound 987, 3(R)OH-nC9CO-D-Dab-cyc[L-Dab-L-Dab-D-Phe-L-Leu-L-Dab-L-Dap-L-Leu]] ({Decanoyl(3R-OH)}-[dDab][Dab][Dab][dF]L[Dab][Dap]L; lactam 2-C) showed a CC50 at 24 h greater than 300 µM. Moreover, the “MIC K. pneumoniae ATCC 700603, MDR” value in [1] was 4 µg/mL (≈ 3.88 µM). Moreover, the “MIC A. baumannii ATCC 19606” value in the data set with A. baumannii ATCC 19606 came out at 1 µg/mL (≈ 0.971 µM). In addition, the “MIC K. pneumoniae GN_106, PmxR” value in data set [2] was determined as 16 µg/mL (≈ 15.5 µM). Moreover, the “MIC P. aeruginosa ATCC 27853” value against P. aeruginosa ATCC 27853 is 2 µg/mL (≈ 1.94 µM). The “MIC K. pneumoniae ATCC 13883” value in the data set on K. pneumoniae ATCC 13883 is 4 µg/mL (≈ 3.88 µM). Also, the “MIC K. pneumoniae GN_102 PmxR” value in data set [3] stood at 16 µg/mL (≈ 15.5 µM). For the same compound, the “MIC E. coli ATCC 25922” value against E. coli ATCC 25922 came to 8 µg/mL (≈ 7.76 µM). Also, the “MIC K. pneumoniae ATCC BAA-2146, NDM-1 pos” value in [4] was determined as 4 µg/mL (≈ 3.88 µM). For the same compound, the “MIC P. aeruginosa GN_043, PmxR” value in [5] is 2 µg/mL (≈ 1.94 µM). Further, the “MIC A. baumannii GN_093 PmxR” value in the data set with A. baumannii GN_093 PmxR turned out to be 8 µg/mL (≈ 7.76 µM). For the same compound, in data set [6], the “MIC S. aureus ATCC 25923, MSSA” value came to 16 µg/mL (≈ 15.5 µM). Moreover, the “MIC P. aeruginosa GN_105, PmxR” value in data set [7] came to 4 µg/mL (≈ 3.88 µM).
Turning to `CCCCCCC[C@@H](O)CC(=O)N[C@H](CCN)C(=O)N[C@H]1CCNC(=O)[C@H](CC(C)C)NC(=O)[C@H](CCCCN)NC(=O)[C@H](CCN)NC(=O)[C@H](CC(C)C)NC(=O)[C@@H](Cc2ccccc2)NC(=O)[C@H](CCN)NC1=O` [compound 989, 3(R)OH-nC9CO-D-Dab-cyc[L-Dab-L-Dab-D-Phe-L-Leu-L-Dab-L-Lys-L-Leu]] ({Decanoyl(3R-OH)}-[dDab][Dab][Dab][dF]L[Dab]KL; lactam 2-C), in the data set “in vitro”, the CC50 at 24 h was greater than 300 µM. In data set [1], the “MIC K. pneumoniae ATCC 700603, MDR” value worked out at 2 µg/mL (≈ 1.86 µM). Besides, in the data set on A. baumannii ATCC 19606, the “MIC A. baumannii ATCC 19606” value was determined as 8 µg/mL (≈ 7.46 µM). Moreover, the “MIC K. pneumoniae GN_106, PmxR” value in data set [2] turned out to be 4 µg/mL (≈ 3.73 µM). In addition, the “MIC P. aeruginosa ATCC 27853” value with P. aeruginosa ATCC 27853 worked out at 2 µg/mL (≈ 1.86 µM). Besides, the “MIC K. pneumoniae ATCC 13883” value against K. pneumoniae ATCC 13883 amounted to 4 µg/mL (≈ 3.73 µM). The “MIC K. pneumoniae GN_102 PmxR” value in data set [3] was determined as 4 µg/mL (≈ 3.73 µM). Also, the “MIC E. coli ATCC 25922” value in the data set on E. coli ATCC 25922 was 4 µg/mL (≈ 3.73 µM). Moreover, the “MIC K. pneumoniae ATCC BAA-2146, NDM-1 pos” value in data set [4] came out at 2 µg/mL (≈ 1.86 µM). In [5], the “MIC P. aeruginosa GN_043, PmxR” value came out at 2 µg/mL (≈ 1.86 µM). Further, the “MIC A. baumannii GN_093 PmxR” value against A. baumannii GN_093 PmxR turned out to be 16 µg/mL (≈ 14.9 µM). Also, the “MIC S. aureus ATCC 25923, MSSA” value in data set [6] was 16 µg/mL (≈ 14.9 µM). Further, the “MIC P. aeruginosa GN_105, PmxR” value in data set [7] was 2 µg/mL (≈ 1.86 µM).
In turn, `CCCCCCC[C@@H](O)CC(=O)N[C@H](CCN)C(=O)N[C@H]1CCNC(=O)[C@H](CC(C)C)NC(=O)[C@H](CCN)NC(=O)[C@H](CCN)NC(=O)[C@H](CC(C)C)NC(=O)[C@@H](Cc2ccccc2)NC(=O)[C@H](CCCN)NC1=O` [compound 994, 3(R)OH-nC9CO-D-Dab-cyc[L-Dab-L-Orn-D-Phe-L-Leu-L-Dab-L-Dab-L-Leu]] ({Decanoyl(3R-OH)}-[dDab][Dab][Orn][dF]L[Dab][Dab]L; lactam 2-C) came in with a CC50 at 24 h in the data set “in vitro” greater than 300 µM. Besides, in [1], the “MIC, K. pneumoniae ATCC 700603, MDR” value was found to be 8 µg/mL (≈ 7.56 µM). In the data set with A. baumannii ATCC 19606, the “MIC, A. baumannii ATCC 19606” value is 32 µg/mL (≈ 30.2 µM). In data set [2], the “MIC, K. pneumoniae Cl 138-16347-20362, PmxR” value amounted to 4 µg/mL (≈ 3.78 µM). Moreover, the “MIC, P. aeruginosa ATCC 27853” value against P. aeruginosa ATCC 27853 was found to be 2 µg/mL (≈ 1.89 µM). Besides, in the data set with K. pneumoniae ATCC 13883, the “MIC, K. pneumoniae ATCC 13883” value was found to be 4 µg/mL (≈ 3.78 µM). For the same compound, in [3], the “MIC, K. pneumoniae Cl Koprana 10065 0661:1, PmxR” value was found to be 4 µg/mL (≈ 3.78 µM). For the same compound, the “MIC, E. coli ATCC 25922” value with E. coli ATCC 25922 was 8 µg/mL (≈ 7.56 µM). Besides, the “MIC, K. pneumoniae ATCC BAA-2146, NDM-1 pos” value in data set [4] is 8 µg/mL (≈ 7.56 µM). In addition, the “MIC, P. aeruginosa FADDI-PA070, PmxR” value in [5] (Table 5) is greater than 32 µg/mL. Besides, in the data set with A. baumannii GN_093 PmxR, the “MIC, A. baumannii Cl Ptyela 10073 4512:2, PmxR” value was 32 µg/mL (≈ 30.2 µM). For the same compound, in data set [6], the “MIC, S. Aureus ATCC 25923, MSSA” value stood at 32 µg/mL (≈ 30.2 µM). The “MIC, P. aeruginosa PA9704, PmxR” value in [7] was determined as 8 µg/mL (≈ 7.56 µM).
